Experimental data reported in patent US7989393B2, “Methods of controlling algae with thaxtomin and thaxtomin compositions” (priority 2007, dated 2011).

Legend:
algae (mix) = experiment: Water and algae mix in a test tube; format: cell-based, green algae; details: 10 mMol (2,840 ppm) in 2 ml water and algae mix
Experimental: Thaxtomin was added to water and algae in a test tube.
Metolachlor (2-chloro-N-(6-ethyl-o-tolyl)-N-[(1RS)-2-methoxy-1-methylethyl]acetamide) is a known pre-emergent herbicide commonly used to control annual grasses and some broadleaves such as Eastern black nightshade and pigweeds.

Batrachospermum spp. = experiment: Bioactivity of purified thaxtomin verse CuSO4, algae growth bioassay; format: cell-based; parameters: key: ++ = visible death; + = growth inhibition; − = no visible growth inhibition; details: 2 ppm, two weeks
Experimental: (§1) Purified thaxtomin was used for a bioassay test and its efficacy evaluated and compared with copper sulphate, an active ingredient for many copper based algaecides. The bioassay was run for two weeks and inhibition of algae growth was evaluated.

Spirogyra spp. = experiment: as above; format: cell-based; parameters: key: ++ = visible death; + = growth inhibition; − = no visible growth inhibition; details: 2 ppm, two weeks
Experimental: as §1

Oedogonium spp. = experiment: as above; format: cell-based; parameters: key: ++ = visible death; + = growth inhibition; − = no visible growth inhibition; details: 2 ppm, two weeks
Experimental: as §1

Rhodymenia spp. = experiment: as above; format: cell-based; parameters: key: ++ = visible death; + = growth inhibition; − = no visible growth inhibition; details: 2 ppm, two weeks
Experimental: as §1

Oscillatoria spp. = experiment: as above; format: cell-based; parameters: key: ++ = visible death; + = growth inhibition; − = no visible growth inhibition; details: 2 ppm, two weeks
Experimental: as §1

the tested algae = experiment: Purified thaxtomin versus copper sulphate bioassay (text summary of Example 5); format: cell-based; details: 2 ppm (commercial recommended rate); two weeks
Experimental: as §1

Structure (SMILES)	Results: appearance of water and algae mix (algae (mix))	Bioactivity (inhibition of algae growth) (Batrachospermum spp.)	Bioactivity (inhibition of algae growth) (Spirogyra spp.)	Bioactivity (inhibition of algae growth) (Oedogonium spp.)	Bioactivity (inhibition of algae growth) (Rhodymenia spp.)	Bioactivity (inhibition of algae growth) (Oscillatoria spp.)	efficacy against the tested organisms (the tested algae)
CCc1cccc(C)c1N(C(=O)CCl)C(C)COC (racemic) [Metolachlor, 2-chloro-N-(6-ethyl-o-tolyl)-N-[(1RS)-2-methoxy-1-methylethyl]acetamide]	did not show any algaestatic and/or algaecidal activity						
O=S(=O)([O-])[O-].[Cu+2] [CuSO4, copper sulphate]		−	+	−	−	−	not very effective
